Where only a bound is given, the exact number is not on record here.

The values below come from US11332485B2, “Penicillin-binding protein inhibitors” (priority 2017, dated 2022).

Experiment [1] deals with T1, PBP3 from Escherichia coli (Escherichia coli, UniProt P0AD68).
T1 construct: made in house
The experiment can be described thus: Fluorescence polarization competition binding assay with Bocillin-FL. An excerpt: To determine the ability of boronic acid-based test PBP inhibitors to bind Penicillin Binding Proteins (PBPs), Bocillin-FL (fluorescently-labeled penicillin V; ThermoFisher Scientific) was used in a fluorescence polarization (FP) competition binding assay to assess boronic acid PBP inhibitor binding to PBP3 from Escherichia coli. PBP3 from Escherichia coli was cloned and purified as described previously (King, D. T, et al., ACS Infectious Diseases 2015, 1, 175-184). To establish assay conditions for competition binding, an enzyme titration/saturation binding experiment was performed. Bocillin-FL was prepared at […] in a buffer comprised of 50 mM Hepes (pH 8.0), 300 mM NaCl and 5% (v/v) glycerol. Saturation binding was performed by mixing […] of PBP3 ranging in concentrations from […] with 40 μl of the 0.2 μM Bocillin-FL solution, in individual wells of a black 384-well microplate. FP was measured immediately upon addition of PBP3 (Ex, Em), using a Cytation3 (BioTek) microplate reader and measured continuously for 60 minutes. […] The competition binding assay was validated using the beta-lactam ampicillin, with Bocillin-FL at a final concentration of 0.1 μM, PBP3 at a final concentration of 1.5 μM and concentrations of ampicillin from 0-1000 μM. PBP3 was incubated with ampicillin at different concentrations in a black 384-well microplate (Corning) for 30 minutes, then Bocillin-FL added and the FP immediately measured for 60 minutes. […] Binding assays for boronic acid PBP inhibitors were performed in an identical fashion. Representative results are shown in Table 3, where A represents a potency of >500 μM, B represents a potency between 30 μM and 500 μM inclusive, and C represents a potency of <30 μM. NT=Not Tested.
For orientation: Fluorescence polarisation rises when a labelled molecule tumbles more slowly, as on binding a larger partner.

Experiment [2] concerns E. coli DH5α/pLBII-CTX-M15. Description: Broth microdilution MIC assay, engineered strain producing CTX-M15. Format: cell-based, Escherichia coli. Particulars: Escherichia coli, read-out: E. coli DH5α/pLBII-CTX-M15 Microbiological Activity (MIC). The gist of the method: (§1)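 CLSI broth microdilution in cation-supplemented Mueller-Hinton broth, 2-fold compound dilutions, 5×10^5 CFU/mL inoculum, 16-20 h at 37° C, MIC read visually as lowest concentration without growth. E. coli DH5α carries CTX-M15 on pLBII under Lac promoter, or empty pLBII as control.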
(In general: Broth dilution looks for growth in wells or tubes with falling amounts of substance.)

Experiment [3] has as its target T2, PBP1a from Escherichia coli (Escherichia coli, UniProt P02918).
T2 construct: made in house
Description: Radioligand competition binding assay with 14C-labeled boronic acid probe (Example 96). Particulars: 14C-labeled probe 96 at 20 μM, PBP 0.1 μM; read-out: E. coli K12 PBP1a EC50. From the text:
To determine the ability of boronic acid-based test PBP inhibitors to bind Penicillin Binding Proteins (PBPs), a radio-labelled boronic acid PBP inhibitor (Example 96) was used in competition binding assays to determine boronic acid PBP inhibitor binding to PBP1a or PBP1b from Escherichia coli. PBP1a and PBP1b were purified as described previously (Bertsche, U.; et al., J. Biol. Chem. 2005, 280 (45), 38096-38101; Born, P.; et al., J Biol. Chem. 2006. 281 (37), 26985-26993). To establish assay conditions for competition binding, an enzyme titration/saturation binding experiment was performed. Saturation binding was performed in a buffer comprised of 20 mM Tris (pH 7.5), 500 mM NaCl and 0.1% (v/v) TritonX-100, with PBP1a/PBP1b at a final concentration of 0.1 μM and 96 at final concentrations ranging from 0-100 μM. Mixtures were incubated for 60 minutes, then applied to Zeba Spin Desalting columns or plates (ThermoFisher Scientific) and centrifuged at 1000-1500×g for 2 minutes. The flow through, containing PBP bound with 96, was recovered and 100 μL mixed with 5 mL of UltimaGold liquid scintillation cocktail (Perkin Elmer), and the radioactivity counted using a Beckman Coulter LS 6500 Multipurpose scintillation counter. PBP binding of 96 approached saturation at 20 μM of ^14C-labeled probe. The competition binding assay was validated using the beta-lactam ampicillin, with 96 at a final concentration of 20 μM, PBP1a/PBP1b at a final concentration of 0.1 μM. PBP1a/PBP1b was incubated with ampicillin in a 96-well microplate for 60 minutes, then 96 was added and the mixtures incubated for an additional 60 minutes. The mixtures were then applied to Zeba Spin desalting plates and centrifuged at 1000×g for 2 minutes. The flow through was recovered and 100 μl mixed with 5 ml of UltimaGold liquid scintillation cocktail and the radioactivity counted. Ampicillin inhibited binding of 96 with an EC50 (the concentration of inhibitor required to reduce binding of 96 by 50%) of less than 0.5 μM. Binding assays with boronic acid PBP inhibitors were performed in an identical fashion. The potency of boronic acid PBP inhibitors was reported as the EC50 value.
Representative results are shown in Table 5, where A represents a potency of >100 μM, B represents a potency between 10 μM and 100 μM inclusive, and C represents a potency of <10 μM. NT=Not Tested.
In general terms: Displacement assays read how much labelled ligand stays bound in the presence of the test substance.

The next experiment concerns E. coli DH5α/pLBII. The experiment can be described thus: Broth microdilution MIC assay, empty vector control strain. Particulars: Escherichia coli, read-out: E. coli DH5α/pLBII Microbiological Activity (MIC). Format: cell-based. Summed up:
as §1

Another experiment concerns S. aureus ATCC 29213. Description: Broth microdilution MIC assay. It is filed as cell-based. Particulars: Staphylococcus aureus, ATCC29213; broth microdilution, 16-20 hours at 37° C.; read-out: S. aureus 29213 MIC. The gist of the method:
(§2)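 CLSI broth microdilution in cation-supplemented Mueller-Hinton broth; 2-fold serial compound dilutions inoculated at 5×10^5 CFU/mL from 3-5 h log-phase cultures. Plates incubated 16-20 hours at 37° C. MIC read visually as lowest concentration with no bacterial growth.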

The test system of experiment [4] is hyper-permeable E. coli 901C. Description: Broth microdilution MIC assay. It is filed as cell-based. The conditions noted are these: Escherichia coli, read-out: E. coli 901C MIC. Summed up:
as §2

T2 sequence (P02918 whole entry): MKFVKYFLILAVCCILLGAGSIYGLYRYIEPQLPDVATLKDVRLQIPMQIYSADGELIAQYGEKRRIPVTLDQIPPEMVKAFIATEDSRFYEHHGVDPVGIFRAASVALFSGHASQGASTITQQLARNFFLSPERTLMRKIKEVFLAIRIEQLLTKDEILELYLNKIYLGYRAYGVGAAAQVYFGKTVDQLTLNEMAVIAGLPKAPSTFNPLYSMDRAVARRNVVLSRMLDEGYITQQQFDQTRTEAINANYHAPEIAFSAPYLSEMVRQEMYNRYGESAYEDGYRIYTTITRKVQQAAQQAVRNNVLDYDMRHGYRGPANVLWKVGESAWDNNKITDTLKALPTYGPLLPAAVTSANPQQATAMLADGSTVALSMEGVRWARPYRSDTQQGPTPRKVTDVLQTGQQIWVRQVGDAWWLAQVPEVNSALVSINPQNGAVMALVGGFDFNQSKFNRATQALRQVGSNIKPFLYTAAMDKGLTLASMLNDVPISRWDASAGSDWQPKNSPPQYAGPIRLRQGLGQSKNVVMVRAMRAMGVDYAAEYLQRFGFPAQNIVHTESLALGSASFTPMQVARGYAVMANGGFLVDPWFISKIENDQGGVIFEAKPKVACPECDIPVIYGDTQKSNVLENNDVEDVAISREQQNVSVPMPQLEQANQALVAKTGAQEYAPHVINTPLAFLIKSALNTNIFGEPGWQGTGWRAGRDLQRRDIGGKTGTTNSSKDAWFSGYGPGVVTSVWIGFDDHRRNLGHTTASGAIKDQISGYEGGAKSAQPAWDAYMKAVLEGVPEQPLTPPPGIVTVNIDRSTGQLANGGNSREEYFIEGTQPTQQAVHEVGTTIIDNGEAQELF
T1 sequence (P0AD68 1-577): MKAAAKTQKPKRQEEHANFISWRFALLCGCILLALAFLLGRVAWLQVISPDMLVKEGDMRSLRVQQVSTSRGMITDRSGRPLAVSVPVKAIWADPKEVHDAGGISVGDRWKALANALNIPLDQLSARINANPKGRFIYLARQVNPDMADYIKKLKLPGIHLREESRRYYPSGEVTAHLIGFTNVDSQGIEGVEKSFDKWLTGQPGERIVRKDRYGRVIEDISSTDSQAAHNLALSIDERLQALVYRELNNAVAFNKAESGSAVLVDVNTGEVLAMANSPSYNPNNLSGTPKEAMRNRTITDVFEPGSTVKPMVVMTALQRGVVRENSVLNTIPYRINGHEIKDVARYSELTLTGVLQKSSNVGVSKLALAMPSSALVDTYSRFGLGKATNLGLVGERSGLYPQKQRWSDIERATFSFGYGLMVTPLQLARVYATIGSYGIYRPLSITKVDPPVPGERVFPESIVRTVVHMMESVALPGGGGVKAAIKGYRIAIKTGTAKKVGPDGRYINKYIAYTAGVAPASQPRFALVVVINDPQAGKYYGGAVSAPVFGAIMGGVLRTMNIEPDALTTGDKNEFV

Turning to `CCC(O)[C@@H](NC(=O)N1CCN(CC)C(=O)C1=O)C(=O)N[C@H]1Cc2cccc(C(=O)O)c2OB1O` (single isomer, unassigned) [Example 82], the EC50 in experiment [1] was 30 to 500 µM; in experiment [3] it was under 10 µM. The MIC in experiment [2] is 32 to 64 µg/mL; in the experiment on E. coli DH5α/pLBII it was 32 to 64 µg/mL; in the experiment with S. aureus ATCC 29213 it was over 128 µg/mL; in experiment [4] it was under 64 µg/mL.
On to `Nc1nc(C(=O)NC(C(=O)N[C@H]2Cc3cccc(C(=O)O)c3OB2O)c2csc(N)n2)cs1` (stereo partly drawn) [Example 17, (3R)-3-(2-(2-aminothiazol-4-yl)-2-(2-aminothiazole-4-carboxamido)acetamido)-2-hydroxy-3,4-dihydro-2H-benzo[e][1,2]oxaborinine-8-carboxylic acid], for which the EC50 in experiment [1] is 30 to 500 µM; in experiment [3] it was over 100 µM. Besides, the MIC is 32 to 64 µg/mL in experiment [2], 32 to 64 µg/mL in the experiment on E. coli DH5α/pLBII, under 64 µg/mL with S. aureus ATCC 29213 and under 64 µg/mL in experiment [4].
`Nc1nc(C(NC(=O)N2CCNC2=O)C(=O)N[C@H]2Cc3cccc(C(=O)O)c3OB2O)cs1` (stereo partly drawn) [Example 19, (3R)-3-(2-(2-aminothiazol-4-yl)-2-(2-oxoimidazolidine-1-carboxamido)acetamido)-2-hydroxy-3,4-dihydro-2H-benzo[e][1,2]oxaborinine-8-carboxylic acid]: the half-maximal effective concentration (EC50) is 30 to 500 µM in experiment [1] and under 10 µM in experiment [3]. The MIC in experiment [2] was 32 to 64 µg/mL; in the experiment with E. coli DH5α/pLBII, 32 to 64 µg/mL; in the experiment with S. aureus ATCC 29213, 64 to 128 µg/mL; in experiment [4], under 64 µg/mL.
Turning to `CS(=O)(=O)N1CCN(C(=O)NC(C(=O)N[C@H]2Cc3cccc(C(=O)O)c3OB2O)c2csc(N)n2)C1=O` (stereo partly drawn) [Example 20, (3R)-3-(2-(2-aminothiazol-4-yl)-2-(3-(methylsulfonyl)-2-oxoimidazolidine-1-carboxamido)acetamido)-2-hydroxy-3,4-dihydro-2H-benzo[e][1,2]oxaborinine-8-carboxylic acid], the EC50 is 30 to 500 µM in experiment [1] and under 10 µM in experiment [3]. The MIC in experiment [2] is 32 to 64 µg/mL; in the experiment on E. coli DH5α/pLBII, 32 to 64 µg/mL; in the experiment on S. aureus ATCC 29213 it was 64 to 128 µg/mL; in experiment [4], under 64 µg/mL.
For the molecule `CCN1CCN(C(=O)N[C@H](CCO)C(=O)N[C@H]2Cc3cccc(C(=O)O)c3OB2O)C(=O)C1=O` [Example 59, (R)-3-((R)-2-(4-ethyl-2,3-dioxopiperazine-1-carboxamido)-4-hydroxybutanamido)-2-hydroxy-3,4-dihydro-2H-benzo[e][1,2]oxaborinine-8-carboxylic acid], the 50% effective concentration (EC50) in experiment [1] was over 500 µM. Also, the MIC in experiment [2] is 32 to 64 µg/mL; with E. coli DH5α/pLBII it was 32 to 64 µg/mL; with S. aureus ATCC 29213, over 128 µg/mL; in experiment [4], under 64 µg/mL.
In experiment [1], `Nc1nc(C(NC(=O)N2CCN(CCO)C(=O)C2=O)C(=O)N[C@H]2Cc3cccc(C(=O)O)c3OB2O)cs1` (stereo partly drawn) [Example 60, (3R)-3-(2-(2-aminothiazol-4-yl)-2-(4-(2-hydroxyethyl)-2,3-dioxopiperazine-1-carboxamido)acetamido)-2-hydroxy-3,4-dihydro-2H-benzo[e][1,2]oxaborinine-8-carboxylic acid] gave an EC50 of 30 to 500 µM. Also, the MIC in experiment [2] is 8 to 16 µg/mL; in the experiment with E. coli DH5α/pLBII it was 8 to 16 µg/mL; in the experiment on S. aureus ATCC 29213 it was 64 to 128 µg/mL; in experiment [4], under 64 µg/mL.
`COCCN1CCN(C(=O)NC(C(=O)N[C@H]2Cc3cccc(C(=O)O)c3OB2O)c2csc(N)n2)C(=O)C1=O` (stereo partly drawn) [Example 61, (3R)-3-(2-(2-aminothiazol-4-yl)-2-(4-(2-methoxyethyl)-2,3-dioxopiperazine-1-carboxamido)acetamido)-2-hydroxy-3,4-dihydro-2H-benzo[e][1,2]oxaborinine-8-carboxylic acid]: the concentration giving a half-maximal response (EC50) in experiment [1] is under 30 µM. Moreover, the MIC is 32 to 64 µg/mL in experiment [2], 32 to 64 µg/mL in the experiment on E. coli DH5α/pLBII, 64 to 128 µg/mL with S. aureus ATCC 29213 and under 64 µg/mL in experiment [4].
The molecule `CCN1CCN(C(=O)NC(C(=O)N[C@H]2Cc3cccc(C(=O)O)c3OB2O)c2csc(N)n2)CC1=O` (stereo partly drawn) [Example 62, (3R)-3-(2-(2-aminothiazol-4-yl)-2-(4-ethyl-3-oxopiperazine-1-carboxamido)acetamido)-2-hydroxy-3,4-dihydro-2H-benzo[e][1,2]oxaborinine-8-carboxylic acid] returned an EC50 in experiment [1] of 30 to 500 µM. In addition, the MIC is 128 to 256 µg/mL in experiment [2], 128 to 256 µg/mL with E. coli DH5α/pLBII, over 128 µg/mL with S. aureus ATCC 29213 and under 64 µg/mL in experiment [4].
`CC(C)CN1CCN(C(=O)NC(C(=O)N[C@H]2Cc3cccc(C(=O)O)c3OB2O)c2csc(N)n2)C(=O)C1=O` (stereo partly drawn) [Example 66, (3R)-3-(2-(2-aminothiazol-4-yl)-2-(4-isobutyl-2,3-dioxopiperazine-1-carboxamido)acetamido)-2-hydroxy-3,4-dihydro-2H-benzo[e][1,2]oxaborinine-8-carboxylic acid] showed an EC50 in experiment [1] of 30 to 500 µM. The MIC in experiment [2] is 32 to 64 µg/mL; in the experiment with E. coli DH5α/pLBII, 32 to 64 µg/mL; in the experiment with S. aureus ATCC 29213 it was 64 to 128 µg/mL; in experiment [4], under 64 µg/mL.
As for `Nc1nc(C(NC(=O)N2CCN(O)C(=O)C2=O)C(=O)N[C@H]2Cc3cccc(C(=O)O)c3OB2O)cs1` (stereo partly drawn) [Example 72, (3R)-3-(2-(2-aminothiazol-4-yl)-2-(4-hydroxy-2,3-dioxopiperazine-1-carboxamido)acetamido)-2-hydroxy-3,4-dihydro-2H-benzo[e][1,2]oxaborinine-8-carboxylic acid], the EC50 in experiment [1] was in the range of 30 to 500 µM. Further, the MIC is 128 to 256 µg/mL in experiment [2], 128 to 256 µg/mL in the experiment on E. coli DH5α/pLBII, 64 to 128 µg/mL with S. aureus ATCC 29213 and under 64 µg/mL in experiment [4].
On to `CCN1CCN(C(=O)N[C@@H](C(=O)N[C@H]2Cc3cccc(C(=O)O)c3OB2O)C(C)(C)C)C(=O)C1=O` [Example 85, (R)-3-((R)-2-(4-ethyl-2,3-dioxopiperazine-1-carboxamido)-3,3-dimethylbutanamido)-2-hydroxy-3,4-dihydro-2H-benzo[e][1,2]oxaborinine-8-carboxylic acid], for which the results for the EC50 in experiment [1] and in experiment [3] were under 30 µM and under 10 µM, respectively. Further, the MIC in experiment [2] is 128 to 256 µg/mL; in the experiment on S. aureus ATCC 29213 it was over 128 µg/mL; in experiment [4] it was under 64 µg/mL.

What is called EC50 is the midpoint of the concentration-response curve.
